Measurements reported in ChEMBL document CHEMBL1201862, “PubChem BioAssay data set” (2004).
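In this assay, cells in 96-well plates receive the compound at five concentrations for 48 hours. Endpoints are linearly interpolated between the surrounding concentrations. GI50 = concentration required for 50% inhibition of growth.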 Activity calls are given as the source filed them. Cut-off read from the data, not from the text of the source: active = GI50 up to about 1.1 µM and inactive = higher.

Legend:
Assay in all cases: growth of human tumour cells (NCI), 48 h
A498 = tested on: A498
BT-549 = tested on: BT-549
COLO 205 = tested on: COLO 205
EKVX = tested on: EKVX
HL-60 = tested on: HL-60
Hs-578T = tested on: Hs-578T
LOX IMVI = tested on: LOX IMVI
M19-MEL = tested on: M19-MEL
NCI-H23 = tested on: NCI-H23
NCI-H460 = tested on: NCI-H460
OVCAR-3 = tested on: OVCAR-3
SF-295 = tested on: SF-295
SK-MEL-28 = tested on: SK-MEL-28
SK-MEL-2 = tested on: SK-MEL-2
SN12C = tested on: SN12C
SNB-19 = tested on: SNB-19
SR = tested on: SR
T47D = tested on: T47D
TK-10 = tested on: TK-10
UACC-62 = tested on: UACC-62

SMILES	GI50 (A498)	GI50 (BT-549)	GI50 (COLO 205)	GI50 (EKVX)	GI50 (HL-60)	GI50 (Hs-578T)	GI50 (LOX IMVI)	GI50 (M19-MEL)	GI50 (NCI-H23)	GI50 (NCI-H460)	GI50 (OVCAR-3)	GI50 (SF-295)	GI50 (SK-MEL-28)	GI50 (SK-MEL-2)	GI50 (SN12C)	GI50 (SNB-19)	GI50 (SR)	GI50 (T47D)	GI50 (TK-10)	GI50 (UACC-62)
COc1cc(C2c3cc4c(cc3[C@H](OCCN(C)C)[C@@H]3COC(=O)C23)OCO4)cc(OC)c1O (some centres undefined)	0.105 µM (active)	0.499 µM (active)	1.73 µM (inactive)	0.485 µM (active)	< 0.01 µM (active)	1.52 µM (inactive)	0.0931 µM (active)	0.373 µM (active)	0.155 µM (active)	< 0.01 µM (active)	1.46 µM (inactive)	0.0681 µM (active)	1.02 µM (active)	0.706 µM (active)	0.0624 µM (active)	0.31 µM (active)	0.218 µM (active)	0.369 µM (active)	2.51 µM (inactive)	0.0762 µM (active)
O=c1cc(-c2ccccc2)oc2ccc(Cl)cc12 [6-CHLOROFLAVONE]	> 68.5 µM (inactive)	> 100 µM (inactive)	> 61.8 µM (inactive)	17.4 µM (inactive)	> 46.5 µM (inactive)	> 44.8 µM (inactive)	> 56.4 µM (inactive)	> 100 µM (inactive)	49.9 µM (inactive)	> 100 µM (inactive)	> 100 µM (inactive)	44.2 µM (inactive)	> 65.6 µM (inactive)	> 84.7 µM (inactive)	> 69.8 µM (inactive)	29.6 µM (inactive)	20.7 µM (inactive)	19.6 µM (inactive)	50 µM (inactive)	> 67.1 µM (inactive)
O=NN(CCCl)C(=O)NC1CCCCC1 [LOMUSTINE]	74.3 µM (inactive)	8.24 µM (inactive)	41.2 µM (inactive)	72.8 µM (inactive)	17.3 µM (inactive)	37.9 µM (inactive)	9.91 µM (inactive)	53 µM (inactive)	68.5 µM (inactive)	36.1 µM (inactive)	66.2 µM (inactive)	32 µM (inactive)	58.7 µM (inactive)	74.3 µM (inactive)	46.6 µM (inactive)	52.5 µM (inactive)	–	31.6 µM (inactive)	73.1 µM (inactive)	12.7 µM (inactive)
